Assay results taken from US10363276B2, “Compositions, methods, and devices for treating disease” (The General Hospital Corporation, priority 2006, dated 2019).

Key:
Hepatocytes = experiment: Hepatocyte colonies and urea synthesis with modulation of SDF-1a signaling; type: cell-based; settings: 5 ng/ml SDF-1a or AMD3100 at 1 uM in standard culture medium
Protocol: FIG. 24 is a bar graph of Urea synthesis in hepatocytes cultured on growth-arrested NIH-3T3-J2 fibroblasts for 14 days supplemented with 5 ng/ml SDF-1a or AMD3100, a CXCR4 antagonist. Data represent mean±standard error of the mean (s.e.m.) of two independent experiments performed in triplicate.
One component of MSC-CM that may be responsible for increased hepatocyte replication is SDF-1a. Hepatocytes were proliferated using aforementioned techniques in standard culture medium alone or supplemented with 5 ng/ml SDF-1a (FIG. 29B) or the SDF-1a receptor antagonist, AMD3100 at 1 uM.

human MSCs = experiment: IL-10 mRNA (RT-PCR) and protein (ELISA) in cytokine-treated MSCs; type: cell-based; settings: IL-6 2.5 ng/ml or TNF-α 25 ng/ml, 24 hours
Protocol: MSCs were exposed to IL-1, IL-6, or tumor necrosis factor-α(TNF-α), all of which are cytokines known to be involved in liver fibrosis, for 24 hours. IL-10 protein secretion and mRNA levels were the determined by enzyme-linked-immunosorbent-assay (ELISA) and RT-PCR, respectively.
Briefly, human MSCs were treated with 2.5 ng/ml IL-6 (R&D Systems, Minneapolis, Minn.), 5 ng/ml IL-1 (R&D Systems, Minneapolis, Minn.), or 25 ng/ml TNF-α (R&D Systems, Minneapolis, Minn.) supplemented MSC expansion medium for 24 hours. MSCs cultured in expansion medium served as a negative control. After treatment, cells were harvested and analyzed for changes in gene expression.
Quantification of human IL-10 was determined using an ELISA as per vendor instructions (Endogen, Rockford, Ill.). Supernatants were sampled after 48 hours of co-culture and stored at −20° C. until analysis.
RNA was extracted from 0.1-1.0×10^6 MSCs using the NUCLEOSPIN RNA purification kit (BD Biosciences, Palo Alto, Calif.) per the manufacturer's instructions. Approximately 1 μg of total mRNA was reverse transcribed to cDNA using the ONESTEP RT-PCR Kit (Qiagen, Valencia, Calif.) per manufacturer's instructions and amplified in a Perkin Elmer-Cetus Thermal Cycler 480. Cycling conditions were: 1) 50° C. for 30 minutes; 2) 95° C. for 15 minutes; 3) 30 cycles at 94° C. for 30 seconds, 55° C. for 30 seconds, and 72° C. for 1 minute; and 4) a final extension step at 72° C. for 10 minutes. IL-10 was amplified using a combination of the sense and antisense oligonucleotides SEQ ID NO:1 and SEQ ID NO:2, respectively, to yield a 364 base pair (bp) PCR product. Glyceraldehyde 3-phosphate dehydrogenase (GAPDH) was amplified using a combination of the sense and antisense oligonucleotides SEQ ID NO:3 and SEQ ID NO:4, respectively, to yield a 238 bp PCR product.

hepatocyte colony size (Hepatocytes) | Molecule | IL-10 mRNA in MSCs (human MSCs) | IL-10 protein secretion into the culture medium by MSCs (human MSCs)
smaller colonies | c1cc(CN2CCCNCCNCCCNCC2)ccc1CN1CCCNCCNCCCNCC1 [AMD3100] |  | 
 | TNF-α | upregulation | upregulation
 | IL-6: cytokine (R&D Systems) used at 2.5 ng/ml to treat human MSCs | upregulation | upregulation
